{"source": "patent US20080261931A1", "about": "“Method and Means of Preventing and Treating Sleep Disordered Breathing” (Cereu-Science AB, priority 2005, published 2008)", "key": {"[1]": {"test_system": "patient with obstructive sleep apnea", "test": "Repeated dosing, multiple medication study with calcium acamprosate and a weight reducing agent (sibutramine); polysomnographic investigation", "type": "in vivo, human", "experimental": "The patient had recently been started on sibutramine (Reductil® capsules, 15 mg once daily) for weight loss. A follow-up sleep investigation (investigation 2) was performed 126 days later when the patient presented a BMI of 31.8. The AHI at this occasion was 19. Calcium acamprosate therapy was started on 333 mg three times per day orally (Campral® tablets) and increased to twice 333 mg three times per day after two weeks. At the end of this treatment period of four weeks (investigation 3) the BMI was marginally changed compared with investigation 2 (31.6) but AHI had decreased to 9."}, "OSA patient": {"test_system": "OSA patient", "test": "Repeated dosing study with calcium acamprosate in an OSA patient (polysomnographic recording)", "type": "in vivo, human", "from_the_text": "A study of repeated calcium acamprosate dosing was undertaken in a patient with a BMI of 32.2. This patient had not consumed any alcohol during the 3 months proceeding the current medication period. The patient suffered from moderate OSA (as determined by an AH index in excess of 35 during previous clinical 8-channel overnight monitoring studies). The contribution from central apneas was low and constituted 5% of obstructive events, respectively. A baseline polysomnographic recording (standard sleep montage, nasal pressure recording) was undertaken at baseline and calcium acamprosate therapy was started on 333 mg three times per day orally (Campral® tablets) with an increase to 2 times 333 mg three times per day after two weeks. Key parameters (indices) were recorded at first dosing and after daily dosing for three weeks (Table)."}, "[2]": {"details": "pending dosage, route of administration, and dosing scheme; extended in renal impairment; cited from earlier work"}, "[3]": {"details": "Week 0, investigation 1 (admission), recently started on sibutramine 15 mg once daily"}, "[4]": {"details": "Week 18, investigation 2 (126 days later), sibutramine 15 mg once daily"}, "[5]": {"details": "Week 3 of oral calcium acamprosate, Week 0 baseline 3"}}}
{"smiles": "CC(C)CC(N(C)C)C1(c2ccc(Cl)cc2)CCC1", "note": "(stereo not drawn) [Sibutramine, sibutramine]", "values": [{"measurement": "AHI (apnea/hypopnea index, number of obstructive apneic/hypopneic events per hour of sleep)", "setting": "[1]; [3]", "result": "30 events per hour of sleep"}, {"measurement": "BMI (body mass index)", "setting": "[1]; [3]", "result": 33.2, "unit": "kg/m^2"}, {"measurement": "AHI (apnea/hypopnea index, number of obstructive apneic/hypopneic events per hour of sleep)", "setting": "[1]; [4]", "result": "19 events per hour of sleep"}, {"measurement": "BMI (body mass index)", "setting": "[1]; [4]", "result": 31.8, "unit": "kg/m^2"}]}
{"smiles": "CC(=O)NCCCS(=O)(=O)O", "note": "[calcium acamprosate]", "values": [{"measurement": "CSAI (central sleep apnea index, number of central apneic events per hour of sleep)", "setting": "OSA patient; [5]", "result": "2 events per hour of sleep"}, {"measurement": "Sat <90%/hr (number of apneic/hypopneic episodes per hour of sleep with an oxygen saturation below 90%)", "setting": "OSA patient; [5]", "result": "1 episodes per hour of sleep"}, {"measurement": "AI (apnea index, number of obstructive apneic events per hour of sleep)", "setting": "OSA patient; Week 3 of oral calcium acamprosate, Week 0 baseline 18", "result": "7 events per hour of sleep"}, {"measurement": "HI (hypopnea index, number of obstructive hypopneic events per hour of sleep)", "setting": "OSA patient; Week 3 of oral calcium acamprosate, Week 0 baseline 22", "result": "9 events per hour of sleep"}, {"measurement": "AHI (apnea/hypopnea index, number of obstructive apneic/hypopneic events per hour of sleep)", "setting": "OSA patient; Week 3 of oral calcium acamprosate, Week 0 baseline 40", "result": "16 events per hour of sleep"}, {"measurement": "MinSat (lowest oxygen saturation value recorded during the period of sleep)", "setting": "OSA patient; Week 3 of oral calcium acamprosate, Week 0 baseline 86", "result": 91}, {"measurement": "Number of central and mixed events", "setting": "OSA patient; after calcium acamprosate, polysomnography", "result": "seemed to decrease in proportion to the number of obstructive events"}, {"measurement": "Daytime sleepiness (patient-reported)", "setting": "OSA patient; already after one week", "result": "reduction in daytime sleepiness"}, {"measurement": "Snoring (patient-reported)", "setting": "OSA patient; early after introduction of the medication", "result": "notable reduction in snoring"}, {"measurement": "Apnea reducing effect in sleep apnea", "setting": "OSA patient; obstructive and seemingly central events, maintained over the entire study period", "result": "potent apnea reducing effect"}, {"measurement": "Side effects", "setting": "OSA patient; three-week study, one patient", "result": "No significant side effects"}, {"measurement": "Apnea reducing effect in a patient with sleep apnea", "setting": "[1]; added to sibutramine", "result": "potent apnea reducing effect"}, {"measurement": "Effect of calcium acamprosate in comparison with that obtained by the weight reducing agent", "setting": "[1]; combined with sibutramine", "result": "additive"}, {"measurement": "Half-life in plasma", "setting": "[2]", "result": "15 to 30", "unit": "h"}]}
